Source: US20190134005A1 (BioMarin Pharmaceutical Inc., priority 2016, published 2019)

These compounds were tested against T1, human CGT (Homo sapiens, UniProt Q16880) (assay: Assay 1: CGT Enzymatic Assay (RapidFire/MS/MS, 0.01% Tween 80)). Settings: not given.
T1 sequence (Q16880 21-541): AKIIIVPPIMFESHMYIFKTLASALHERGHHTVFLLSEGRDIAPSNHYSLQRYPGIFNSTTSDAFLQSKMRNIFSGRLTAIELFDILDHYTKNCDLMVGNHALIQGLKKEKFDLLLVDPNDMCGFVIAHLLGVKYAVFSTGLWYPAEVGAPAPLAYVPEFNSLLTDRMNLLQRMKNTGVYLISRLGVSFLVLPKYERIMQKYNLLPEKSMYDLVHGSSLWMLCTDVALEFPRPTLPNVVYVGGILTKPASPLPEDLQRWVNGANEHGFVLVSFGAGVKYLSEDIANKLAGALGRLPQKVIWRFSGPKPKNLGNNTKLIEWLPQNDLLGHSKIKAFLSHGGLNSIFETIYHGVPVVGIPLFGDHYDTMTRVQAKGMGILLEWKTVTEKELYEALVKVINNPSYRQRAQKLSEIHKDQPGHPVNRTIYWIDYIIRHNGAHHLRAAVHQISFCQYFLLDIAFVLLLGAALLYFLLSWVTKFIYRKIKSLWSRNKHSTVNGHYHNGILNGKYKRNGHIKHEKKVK
Assay type: biochemical
`O=C1N(c2ccc(Br)cc2)C(=O)C(O)(c2cc3ccccc3[nH]2)N1c1ccc(Br)cc1` (stereo not shown) [Example 210, 1,3-bis(4-bromophenyl)-5-hydroxy-5-(1H-indol-2-yl)imidazolidine-2,4-dione] was tested, and the IC50 was 10000 to 50000 nM.

Same assay, conditions: Table 1, Compounds of Formula (I) and Formula (II); CGT enzymatic assay, C6-NBD-dihydro-galactosylceramide readout; read-out: IC50
With `N#Cc1ccc(N2C(=O)N(c3ccc(Br)cc3)C(O)(c3cccc(C#N)c3)C23CCC3)cc1` (stereo not shown) [Compound 295, 3-(7-(4-bromophenyl)-5-(4-cyanophenyl)-8-hydroxy-6-oxo-5,7-diazaspiro[3.4]octan-8-yl)benzonitrile] the IC50 was under 1000 nM. Work on `Cc1ccc(N2C(=O)N(c3ccc(C)cc3)C(O)(c3cccc(OC(F)F)c3)C23COC3)cc1` (stereo not shown) [Compound 290, 8-(3-(difluoromethoxy)phenyl)-8-hydroxy-5,7-di-p-tolyl-2-oxa-5,7-diazaspiro[3.4]octan-6-one] yielded an IC50 of under 1000 nM. `N#Cc1cccc(C2(O)N(c3ccc(C(F)(F)F)cc3)C(=O)N(c3ccc(C(F)(F)F)cc3)C23COC3)c1` (stereo not shown) [Compound 303, 3-(8-hydroxy-6-oxo-5,7-bis(4-(trifluoromethyl)phenyl)-2-oxa-5,7-diazaspiro[3.4]octan-8-yl)benzonitrile] showed an IC50 of under 1000 nM. With `Cc1ccc(N2C(=O)N(c3ccc(C)cc3)C(O)(c3cccc(C#N)c3)C23COC3)cc1` (stereo not shown) [Compound 287, 3-(8-hydroxy-6-oxo-5,7-di-p-tolyl-2-oxa-5,7-diazaspiro[3.4]octan-8-yl)benzonitrile] the IC50 was under 1000 nM. Work on `Cc1ccc(N2C(=O)N(c3ccc(C#N)cc3)C(O)(c3cccc(OC(F)(F)F)c3)C2(C)C)cc1` (stereo not shown) [Example 314, 4-(5-hydroxy-4,4-dimethyl-2-oxo-3-(p-tolyl)-5-(3-(trifluoromethoxy)phenyl)imidazolidin-1-yl)benzonitrile] yielded an IC50 of under 1000 nM.

Same assay, conditions: Table 1, Compounds of Formula (I) and Formula (II); CGT enzymatic assay; read-out: IC50
In the case of `CCCC1N(c2ccc(Br)cc2)C(=O)N(c2ccc(Br)cc2)C1(O)c1cccc(Cl)c1` (stereo not shown) [Compound 119, 1,3-bis(4-bromophenyl)-4-(3-chlorophenyl)-4-hydroxy-5-propylimidazolidin-2-one], the IC50 is reported as under 1000 nM. With `CCCc1c(-c2cccc(C(F)(F)F)c2)n(-c2ccc(Cl)cc2)c(=O)n1-c1ccc(Cl)cc1` [Compound 243, 1,3-bis(4-chlorophenyl)-4-propyl-5-(3-(trifluoromethyl)phenyl)-1,3-dihydro-2H-imidazol-2-one] the IC50 was 1000 to 10000 nM. `CCCC1N(c2ccc(Cl)cc2)C(=O)N(c2ccc(Cl)cc2)C1(O)c1cccc(CC)c1` (stereo not shown) [Compound 89, 1,3-bis(4-chlorophenyl)-4-(3-ethylphenyl)-4-hydroxy-5-propylimidazolidin-2-one] showed an IC50 of under 1000 nM. Compound `CCOc1cccc(C2(O)CN(c3ccc(Br)cc3)C(=O)N2c2ccc(Br)cc2)c1` (stereo not shown) [Compound 79, 1,3-bis(4-bromophenyl)-4-(3-ethoxyphenyl)-4-hydroxyimidazolidin-2-one] has an IC50 of 1000 to 10000 nM. Work on `CC1N(c2ccc(C#N)cc2)C(=O)N(c2ccc(C#N)cc2)C1(O)c1cccc(OC(F)(F)F)c1` (stereo not shown) [Example 180, 4,4′-(4-hydroxy-5-methyl-2-oxo-4-(3-(trifluoromethoxy)phenyl)imidazolidine-1,3-diyl)dibenzonitrile] yielded an IC50 of 1000 to 10000 nM. `COc1cccc(C2(O)C(=O)N(c3ccc(Br)cc3)C(=O)N2c2ccc(Br)cc2)c1` (stereo not shown) [Example 179, 1,3-bis(4-bromophenyl)-5-hydroxy-5-(3-methoxyphenyl)imidazolidine-2,4-dione] gave an IC50 of 10000 to 50000 nM. With `CC1(C)N(c2ccc(Cl)cc2)C(=O)N(c2ccc(Cl)cc2)C1(O)c1cccnc1` (stereo not shown) [Example 189, 1,3-bis(4-chlorophenyl)-4-hydroxy-5,5-dimethyl-4-(pyridin-3-yl)imidazolidin-2-one] the IC50 was under 1000 nM. In the case of `CC[C@@H]1N(c2ccc(Br)cc2)C(=O)N(c2ccc(Br)cc2)C1(O)c1cccc(C)c1` (stereo partly drawn) [Compound 76-1, (5S)-1,3-bis(4-bromophenyl)-5-ethyl-4-hydroxy-4-(m-tolyl)imidazolidin-2-one], the IC50 is reported as under 1000 nM. `Cc1ccccc1C1(O)CN(c2ccc(Br)cc2)C(=O)N1c1ccc(Br)cc1` (stereo not shown) [Example 14, 1,3-bis(4-bromophenyl)-4-hydroxy-4-(o-tolyl)imidazolidin-2-one] showed an IC50 of over 50000 nM. `CC1N(c2ccc(Cl)cc2)C(=O)N(c2ccc(Cl)cc2)C1(O)c1cccc(C#N)c1` (stereo not shown) [Compound 99, 3-(1,3-bis(4-chlorophenyl)-4-hydroxy-5-methyl-2-oxoimidazolidin-4-yl)benzonitrile] showed an IC50 of under 1000 nM. `O=C1N(c2ccc(Cl)cc2)C2(CCC2)C(O)(c2cccc(OC(F)F)c2)N1c1ccc(Cl)cc1` (stereo not shown) [Example 165, 5,7-bis(4-chlorophenyl)-8-(3-(difluoromethoxy)phenyl)-8-hydroxy-5,7-diazaspiro[3.4]octan-6-one] was tested, and the IC50 was under 1000 nM. With `C[C@]1(c2cccc(C(F)(F)F)c2)C(O)N(c2ccc(Cl)cc2)C(=O)N1c1ccc(Cl)cc1` (stereo partly drawn) [Example 190-1, (4S)-1,3-bis(4-chlorophenyl)-5-hydroxy-4-methyl-4-(3-(trifluoromethyl)phenyl)imidazolidin-2-one] the IC50 was over 50000 nM. `CC(C)C1(c2cccc(C#N)c2)C(O)N(c2ccc(Cl)cc2)C(=O)N1c1ccc(Cl)cc1` (stereo not shown) [Example 231, 3-(1,3-bis(4-chlorophenyl)-5-hydroxy-4-isopropyl-2-oxoimidazolidin-4-yl)benzonitrile] showed an IC50 of 1000 to 10000 nM. Work on `CCC1N(c2ccc(Br)cc2)C(=O)N(c2ccc(Br)cc2)C1(O)c1cccc(OC(F)(F)F)c1` (stereo in doubt) [Compound 83-2, (5R)-1,3-bis(4-bromophenyl)-5-ethyl-4-hydroxy-4-(3-(trifluoromethoxy)phenyl)imidazolidin-2-one] yielded an IC50 of under 1000 nM. For `CC1(C)N(c2ccc(Cl)cc2)C(=O)N(c2ccc(Cl)cc2)C1(O)c1cccc(OC(F)(F)F)c1` (stereo not shown) [Compound 133, 1,3-bis(4-chlorophenyl)-4-hydroxy-5,5-dimethyl-4-(3-(trifluoromethoxy)phenyl)imidazolidin-2-one], the IC50 was under 1000 nM. Work on `CC1N(c2ccc(Cl)cc2)C(=O)N(c2ccc(Cl)cc2)C1(O)c1cccc(Cl)c1` (stereo not shown) [Compound 62, 4-(3-chlorophenyl)-1,3-bis(4-chlorophenyl)-4-hydroxy-5-methylimidazolidin-2-one] yielded an IC50 of under 1000 nM. In the case of `CCCC1N(c2ccc(Cl)cc2)C(=O)N(c2ccc(Cl)cc2)C1(O)c1cccc(Cl)c1` (stereo not shown) [Compound 114, 4-(3-chlorophenyl)-1,3-bis(4-chlorophenyl)-4-hydroxy-5-propylimidazolidin-2-one], the IC50 is reported as under 1000 nM. `C[C@@]1(c2ccccc2)C(O)N(c2ccc(Cl)cc2)C(=O)N1c1ccc(Cl)cc1` (single isomer, unassigned) [Example 223-2] showed an IC50 of under 1000 nM. Work on `CCCCC1(O)C(=O)N(c2ccc(Br)cc2)C(=O)N1c1ccc(Br)cc1` (stereo not shown) [Compound 152, 1,3-bis(4-bromophenyl)-5-butyl-5-hydroxyimidazolidine-2,4-dione] yielded an IC50 of 50000 to 100000 nM. Work on `CCC[C@H]1N(c2ccc(Cl)cc2)C(=O)N(c2ccc(Cl)cc2)C1(O)c1cccc(C#N)c1` (stereo partly drawn) [Compound 101-2, 3-((5R)-1,3-bis(4-chlorophenyl)-4-hydroxy-2-oxo-5-propylimidazolidin-4-yl)benzonitrile] yielded an IC50 of under 1000 nM. For `O=C1N(c2ccc(Br)cc2)CC(O)(c2ccccc2)N1c1ccc(Br)cc1` (stereo not shown) [Example 1], the IC50 was 1000 to 10000 nM. Work on `CCCc1c(C(=O)c2ccccc2)n(-c2ccc(Cl)cc2)c(=O)n1-c1ccc(Cl)cc1` [Example 27, 4-benzoyl-1,3-bis(4-chlorophenyl)-5-propyl-1,3-dihydro-2H-imidazol-2-one] yielded an IC50 of 10000 to 50000 nM. Work on `CCCC1N(c2ccc(Cl)cc2)C(=O)N(c2ccc(Cl)cc2)C1(O)CCC` (stereo not shown) [Compound 122, 1,3-bis(4-chlorophenyl)-4-hydroxy-4,5-dipropylimidazolidin-2-one] yielded an IC50 of 10000 to 50000 nM. `O=c1n(-c2ccc(Br)cc2)c2c(n1-c1ccc(Br)cc1)CCCC2` [Example 18] was tested, and the IC50 was 10000 to 50000 nM. Work on `CCC1N(c2ccc(Cl)cc2)C(=O)N(c2ccc(Cl)cc2)C1(O)c1cccc(Cl)c1` (stereo not shown) [Compound 81, 4-(3-chlorophenyl)-1,3-bis(4-chlorophenyl)-5-ethyl-4-hydroxyimidazolidin-2-one] yielded an IC50 of under 1000 nM. Work on `O=C1N(c2ccc(Cl)cc2)[C@@H](C2CC2)C(O)(c2cccc(OC(F)F)c2)N1c1ccc(Cl)cc1` (stereo partly drawn) [Compound 233-1, (5S)-1,3-bis(4-chlorophenyl)-5-cyclopropyl-4-(3-(difluoromethoxy)phenyl)-4-hydroxyimidazolidin-2-one] yielded an IC50 of under 1000 nM. Compound `COc1cccc([C@]2(C)C(O)N(c3ccc(Br)cc3)C(=O)N2c2ccc(Br)cc2)c1` (single isomer, unassigned) [Compound 126-2] has an IC50 of under 1000 nM. Compound `CCCC1N(c2ccc(Br)cc2)C(=O)N(c2ccc(Br)cc2)C1(O)c1cccc(C)c1` (stereo not shown) [Compound 96, 1,3-bis(4-bromophenyl)-4-hydroxy-5-propyl-4-(m-tolyl)imidazolidin-2-one] has an IC50 of under 1000 nM. For `CCC1(O)[C@H](c2ccccc2)N(c2ccc(Br)cc2)C(=O)N1c1ccc(Br)cc1` (stereo partly shown) [Example 45-1], the IC50 was under 1000 nM. In the case of `CC(=O)c1cccc(-c2c(C)n(-c3ccc(Cl)cc3)c(=O)n2-c2ccc(Cl)cc2)c1` [Compound 253, 4-(3-acetylphenyl)-1,3-bis(4-chlorophenyl)-5-methyl-1,3-dihydro-2H-imidazol-2-one], the IC50 is reported as 1000 to 10000 nM. Work on `C[C@@H]1N(c2ccc(Br)cc2)C(=O)N(c2ccc(Br)cc2)C1(O)c1cccc(OC(F)(F)F)c1` (stereo partly drawn) [Compound 66-1, (5S)-1,3-bis(4-bromophenyl)-4-hydroxy-5-methyl-4-(3-(trifluoromethoxy)phenyl)imidazolidin-2-one] yielded an IC50 of under 1000 nM.
